Measured values from patent publication US10899747B2, “Biaryl piperidine amide compounds and methods of use thereof” (Athenex, Inc., priority 2017, dated 2021).

Experiments:
Format in all cases: cell-based
IL-2 [1] = test: IL-2 secretion by ELISA in Jurkat T cells stimulated with PMA and ionomycin; conditions: Homo sapiens, supernatants harvested at 20 hours, read-out: concentration required to achieve 50% inhibition (IC50) of IL-2
Method: Jurkat (a transformed human T cell leukemia) cells were plated in 96-well plates at a final density of 1.0-2.0×10^6 cells/ml in 150 ul of assay medium (RPMI+0.5% fetal calf serum). Compounds 403 and 413 were included at a final concentration of ≤20 uM and pre-incubated with cells for 30 minutes prior to stimulation. Mitogens PMA and ionomycin were added to the T cell receptor (TCR) complex (e.g., anti-CD3c) and CD28. Cell cultures were stimulated for 24-48 hours in a humidified incubator (37 degrees C./5% CO2). A fraction of the culture supernatant was then harvested from each well and assayed for the presence of appropriate cytokine using standard ELISA. Cytokines analyzed was IL-2. If required, the number of cytokine producing cells can be determined using intracellular staining and flow cytometry.
More specifically, Jurkat T cells were stimulated with the mitogens PMA and ionomycin in the presence of varying concentrations of compound 403 or compound 413. Supernatants were harvested at 20 hours and analyzed for IL-2 content by ELISA. IL-2 values obtained from vehicle (DMSO) treated control wells (˜2800 pg/ml) were assigned a value of 100% and used to calculate the % inhibition achieved for each compound.

IL-2 [2] = test: PHA-IL2 (cell activation and cytokine analysis); conditions: 50% inhibition concentration class
Procedure, shortened: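 Cells were seeded in 96-well plates at 1.0-2.0×10^6 cells/ml in 150 ul of RPMI containing 0.5% fetal calf serum. Test compounds, at up to ≤20 uM, were preincubated with the cells for 30 minutes, then phytohemagglutinin (PHA) was added and cultures were stimulated for 24-48 hours at 37 degrees C./5% CO2. Supernatant IL-2 was then quantified by standard ELISA.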

NFAT = test: NFAT-dependent Firefly luciferase reporter assay in Jurkat T cells stimulated with PMA and ionomycin; conditions: Homo sapiens, PMA and ionomycin for 6 hours, read-out: concentration required to achieve 50% inhibition (IC50) of NFAT-dependent luciferase activity
Method: Jurkat T cells were transiently transfected with a DNA plasmid encoding Firefly luciferase under the transcriptional control of an appropriate regulatory element that may include multimerized NFAT, AP-1, NFκB, or CREB binding sites. Cells were co-transfected with a DNA plasmid encoding Renilla luciferase under the transcriptional control of a constitutive regulatory element (e.g., HSV-TK promoter). 24 hours following transfection, cells were collected and re-seeded in 96-well plates at a final density of 1.0×10^6 cells/ml in 150 ul assay medium. Compound 413 was included at a final concentration of ≤20 uM and pre-incubated with cells for 30 minutes prior to stimulation. […] Cells were then lysed and the level of Firefly luciferase and Renilla Luciferase activity was determined using a standard assay (e.g., Promega's Dual Luciferase Reporter Assay System) and plate-reading luminometer. The ratio obtained by dividing activation induced Firefly luciferase activity by the constitutive Renilla luciferase activity was calculated and used as a quantitative measurement of cell activation.
More specifically, Jurkat T cells were co-transfected with a NFAT-dependent Firefly Luciferase reporter plasmid and a control Renilla Luciferase reporter plasmid. […] Lysates were prepared and analyzed for luciferase activity using the Dual Luciferase Reporter Assay System (Promega). […]

Row | Structure (SMILES) | IC50 (IL-2 [1]) [µM] | IC50 (IL-2 [2]) [µM] | IC50 (NFAT) [µM]
1 | CC(C)Oc1cccc(CCC2CCN(C(=O)COc3ccccc3-c3ccc(C#N)cc3)CC2)c1 [Compound 403] | 0.068 | < 1 | –
2 | CC(C)Oc1cccc(CCC2CCN(C(=O)COc3ccc(C#N)cc3-c3ccc(C#N)cc3)CC2)c1 [Compound 413] | 0.018 | < 1 | 0.009
